According to paper PMC4584933, “Establishing the pig as a large animal model for vaccine development against human cancer” (Frontiers in Genetics, 2015):

Assays:
SLA-2*04:01 = assay: Peptide-MHC class I complex stability, scintillation proximity assay (SPA); design: species or system pig; details: biotinylated recombinant SLA heavy chain, 125I-β2m, excess unlabeled β2m, read every 40 min, number only if t1/2 ≥ 0.5 h, '-' = not stably binding
Summary of the method: (§1)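 Biotinylated recombinant heavy chains captured on streptavidin scintillation plates with 125I-β2m and peptide; signal read every 40 min under dissociating conditions with excess unlabeled β2m. Signal duration gives complex half-life; ≥ 0.5 h counted as stable binder.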

SLA-1*07:02 = assay: as above; design: species or system pig; details: biotinylated recombinant SLA heavy chain, 125I-β2m, excess unlabeled β2m, read every 40 min, number only if t1/2 ≥ 0.5 h, '-' = not stably binding
Summary of the method: as §1

SLA-3*04:01 = assay: as above; design: species or system pig; details: biotinylated recombinant SLA heavy chain, 125I-β2m, excess unlabeled β2m, read every 40 min, number only if t1/2 ≥ 0.5 h, '-' = not stably binding
Summary of the method: as §1

SLA-1*04:01 = assay: as above; design: species or system pig; details: biotinylated recombinant SLA heavy chain, 125I-β2m, excess unlabeled β2m, read every 40 min, number only if t1/2 ≥ 0.5 h, '-' = not stably binding
Summary of the method: as §1

SLA-2*05:02 = assay: as above; design: species or system pig; details: biotinylated recombinant SLA heavy chain, 125I-β2m, excess unlabeled β2m, read every 40 min, number only if t1/2 ≥ 0.5 h, '-' = not stably binding
Summary of the method: as §1

PBMCs = assay: In vitro peptide stimulation of porcine PBMCs, IFN-γ release assay (ELISA); format: cell-based, pig; design: key to T cell response: “x” indicates that a response was found to this given peptide at least once; details: PBMCs of immunized pigs, 2 × 10^5/well, 5 μg/ml peptide, 67.5–70.0 h, IFN-γ ELISA; response = 2-fold increase vs day -2 and at least 25 pg/ml IFN-γ, found at least once; SLA restriction not included
[1] = Dissolving of 20mer peptides for immunization; format: physicochemical; details: to 5 mM in milliQ water, N-methyl-2-pyrrolidone or 3% ammonia water
Method: Fifty-nine 20mer peptides with 10mer overlap covering the entire IDO and RhoC amino acid (aa) sequence were purchased from Genscript (New Jersey, U.S) or Pepscan Presto BV (Lelystad, the Netherlands). […] Peptides were dissolved to a concentration of 5 mM in milliQ water, N-methyl-2-pyrrolidone or 3% ammonia water in accordance with the supplier's recommendations, for further details see Supplementary Table 1.

MTYKNMDILF [IDO81, porcine IDO-derived 9-11mer peptide]
Binder (t1/2 ≥ 0.5 h): half-life of peptide-SLA-2*04:01 complex (SLA-2*04:01): 252 min | Binder (t1/2 ≥ 0.5 h): half-life of peptide-SLA-1*07:02 complex (SLA-1*07:02): - (t1/2 (hours) is listed for each of the stably binding peptides (t1/2 ≥ 0.5 h)) | Binder (t1/2 ≥ 0.5 h): half-life of peptide-SLA-3*04:01 complex (SLA-3*04:01): - (t1/2 (hours) is listed for each of the stably binding peptides (t1/2 ≥ 0.5 h)) | Binder (t1/2 ≥ 0.5 h): half-life of peptide-SLA-1*04:01 complex (SLA-1*04:01): - (t1/2 (hours) is listed for each of the stably binding peptides (t1/2 ≥ 0.5 h)) | Binder (t1/2 ≥ 0.5 h): half-life of peptide-SLA-2*05:02 complex (SLA-2*05:02): - (t1/2 (hours) is listed for each of the stably binding peptides (t1/2 ≥ 0.5 h))

MANRISAFGY [RhoC39, porcine RhoC-derived 9-11mer peptide]
Binder (t1/2 ≥ 0.5 h): half-life of peptide-SLA-2*04:01 complex (SLA-2*04:01): 84 min | Binder (t1/2 ≥ 0.5 h): half-life of peptide-SLA-1*07:02 complex (SLA-1*07:02): 90 min | Binder (t1/2 ≥ 0.5 h): half-life of peptide-SLA-1*04:01 complex (SLA-1*04:01): 42 min | T cell response (PBMCs): x

IDO330−350: 20mer peptide of the overlapping IDO/RhoC library, omitted due to dissolving problems (EAYDACVKALVSLRSYHLQIV; UniProt P14902 330-350, looked up, fragment)
dissolving of peptide [1]: dissolving problems

KVLPRNIAIPY [IDO63, porcine IDO-derived 9-11mer peptide]
Binder (t1/2 ≥ 0.5 h): half-life of peptide-SLA-1*07:02 complex (SLA-1*07:02): 42 min | Binder (t1/2 ≥ 0.5 h): half-life of peptide-SLA-3*04:01 complex (SLA-3*04:01): - (t1/2 (hours) is listed for each of the stably binding peptides (t1/2 ≥ 0.5 h)) | Binder (t1/2 ≥ 0.5 h): half-life of peptide-SLA-1*04:01 complex (SLA-1*04:01): - (t1/2 (hours) is listed for each of the stably binding peptides (t1/2 ≥ 0.5 h)) | T cell response (PBMCs): x

ALWDTAGQEDY [RhoC1, porcine RhoC-derived 9-11mer peptide]
Binder (t1/2 ≥ 0.5 h): half-life of peptide-SLA-1*07:02 complex (SLA-1*07:02): 54 min | Binder (t1/2 ≥ 0.5 h): half-life of peptide-SLA-1*04:01 complex (SLA-1*04:01): 234 min | T cell response (PBMCs): x

RLAHLVLGY [IDO104, porcine IDO-derived 9-11mer peptide]
Binder (t1/2 ≥ 0.5 h): half-life of peptide-SLA-2*04:01 complex (SLA-2*04:01): - (t1/2 (hours) is listed for each of the stably binding peptides (t1/2 ≥ 0.5 h)) | Binder (t1/2 ≥ 0.5 h): half-life of peptide-SLA-1*07:02 complex (SLA-1*07:02): 30 min | Binder (t1/2 ≥ 0.5 h): half-life of peptide-SLA-1*04:01 complex (SLA-1*04:01): - (t1/2 (hours) is listed for each of the stably binding peptides (t1/2 ≥ 0.5 h))

VLPRNIAIPY [IDO126, porcine IDO-derived 9-11mer peptide]
Binder (t1/2 ≥ 0.5 h): half-life of peptide-SLA-1*07:02 complex (SLA-1*07:02): 42 min | Binder (t1/2 ≥ 0.5 h): half-life of peptide-SLA-1*04:01 complex (SLA-1*04:01): - (t1/2 (hours) is listed for each of the stably binding peptides (t1/2 ≥ 0.5 h)) | T cell response (PBMCs): x
